Assay results published in ChEMBL document CHEMBL1201862, “PubChem BioAssay data set” (2004).
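Compound exposure: 48 hours, 5 concentrations, 96-well plates. GI50 marks 50% less growth.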 Calls of active or inactive are those of the source. Rule as the data show it: active = GI50 up to about 1.1 µM and inactive = higher.

Columns and labels:
Assay in all cases: inhibition of tumour cell growth, NCI panel, 48 h
SK-MEL-2 = tested on: SK-MEL-2
A498 = tested on: A498
BT-549 = tested on: BT-549
HCT-15 = tested on: HCT-15
EKVX = tested on: EKVX
786-0 = tested on: 786-0
HOP-62 = tested on: HOP-62
KM12 = tested on: KM12
TK-10 = tested on: TK-10
IGROV-1 = tested on: IGROV-1
OVCAR-4 = tested on: OVCAR-4
OVCAR-5 = tested on: OVCAR-5
SF-539 = tested on: SF-539
MDA-MB-231 = tested on: MDA-MB-231
K562 = tested on: K562
NCI-H23 = tested on: NCI-H23
OVCAR-3 = tested on: OVCAR-3
MCF7 = tested on: MCF7
Hs-578T = tested on: Hs-578T
MDA-N = tested on: MDA-N
MOLT-4 = tested on: MOLT-4
SK-MEL-5 = tested on: SK-MEL-5
DU-145 = tested on: DU-145
M14 = tested on: M14
HT-29 = tested on: HT-29
UACC-62 = tested on: UACC-62
Malme-3M = tested on: Malme-3M
CAKI-1 = tested on: CAKI-1
U-251 = tested on: U-251
PC-3 = tested on: PC-3
SR = tested on: SR
HOP-92 = tested on: HOP-92
SNB-19 = tested on: SNB-19
UO-31 = tested on: UO-31
SN12C = tested on: SN12C
NCI-H522 = tested on: NCI-H522
UACC-257 = tested on: UACC-257
ACHN = tested on: ACHN
A549 = tested on: A549
NCI-H226 = tested on: NCI-H226
SF-268 = tested on: SF-268
HCT-116 = tested on: HCT-116
SK-MEL-28 = tested on: SK-MEL-28
SW-620 = tested on: SW-620
NCI/ADR-RES = tested on: NCI/ADR-RES
MDA-MB-435 = tested on: MDA-MB-435
HCC 2998 = tested on: HCC 2998
HL-60 = tested on: HL-60
NCI-H460 = tested on: NCI-H460
COLO 205 = tested on: COLO 205
SF-295 = tested on: SF-295
SK-OV-3 = tested on: SK-OV-3
RPMI-8226 = tested on: RPMI-8226
T47D = tested on: T47D
SNB-75 = tested on: SNB-75
RXF 393 = tested on: RXF 393
OVCAR-8 = tested on: OVCAR-8
LOX IMVI = tested on: LOX IMVI
CCRF-CEM = tested on: CCRF-CEM

FC(F)(F)c1n[nH]c(SCc2ccc(Cl)cc2)n1
GI50 (SK-MEL-2): > 100 µM (inactive) | GI50 (A498): > 100 µM (inactive) | GI50 (BT-549): > 100 µM (inactive) | GI50 (HCT-15): > 100 µM | GI50 (EKVX): > 100 µM (inactive) | GI50 (786-0): > 100 µM (inactive) | GI50 (HOP-62): > 100 µM (inactive) | GI50 (KM12): > 100 µM (inactive) | GI50 (TK-10): > 100 µM (inactive) | GI50 (IGROV-1): > 100 µM (inactive) | GI50 (OVCAR-4): > 100 µM (inactive) | GI50 (OVCAR-5): > 100 µM (inactive) | GI50 (SF-539): > 100 µM (inactive) | GI50 (MDA-MB-231): > 100 µM (inactive) | GI50 (K562): > 100 µM (inactive) | GI50 (NCI-H23): > 100 µM (inactive) | GI50 (OVCAR-3): > 100 µM (inactive) | GI50 (MCF7): > 100 µM (inactive) | GI50 (Hs-578T): 94.8 µM (inactive) | GI50 (MDA-N): > 100 µM (inactive) | GI50 (MOLT-4): > 100 µM (inactive) | GI50 (SK-MEL-5): > 100 µM (inactive) | GI50 (DU-145): > 100 µM (inactive) | GI50 (M14): > 100 µM (inactive) | GI50 (HT-29): > 100 µM (inactive) | GI50 (UACC-62): > 100 µM (inactive) | GI50 (Malme-3M): > 100 µM (inactive) | GI50 (CAKI-1): > 100 µM (inactive) | GI50 (U-251): > 100 µM (inactive) | GI50 (PC-3): > 100 µM (inactive) | GI50 (SR): > 100 µM (inactive) | GI50 (HOP-92): > 100 µM (inactive) | GI50 (SNB-19): > 100 µM (inactive) | GI50 (UO-31): 59.4 µM (inactive) | GI50 (SN12C): > 100 µM (inactive) | GI50 (NCI-H522): > 100 µM (inactive) | GI50 (UACC-257): > 100 µM (inactive) | GI50 (ACHN): > 100 µM (inactive) | GI50 (A549): > 100 µM (inactive) | GI50 (NCI-H226): > 100 µM (inactive) | GI50 (SF-268): > 100 µM (inactive) | GI50 (HCT-116): > 100 µM (inactive) | GI50 (SK-MEL-28): > 100 µM (inactive) | GI50 (SW-620): > 100 µM (inactive) | GI50 (NCI/ADR-RES): > 100 µM (inactive) | GI50 (MDA-MB-435): > 100 µM (inactive) | GI50 (HCC 2998): > 100 µM (inactive) | GI50 (HL-60): > 100 µM (inactive) | GI50 (NCI-H460): > 100 µM (inactive) | GI50 (COLO 205): > 100 µM (inactive) | GI50 (SF-295): > 100 µM (inactive) | GI50 (SK-OV-3): > 100 µM (inactive) | GI50 (RPMI-8226): > 100 µM (inactive) | GI50 (T47D): > 100 µM (inactive) | GI50 (SNB-75): > 100 µM (inactive) | GI50 (RXF 393): > 100 µM (inactive) | GI50 (OVCAR-8): > 100 µM (inactive) | GI50 (LOX IMVI): > 100 µM (inactive)

O=C1OC(=O)C(=C\c2ccc3c(c2)OCO3)/C1=C/c1ccc2c(c1)OCO2
GI50 (SK-MEL-2): > 100 µM (inactive) | GI50 (A498): > 100 µM (inactive) | GI50 (BT-549): > 100 µM (inactive) | GI50 (HCT-15): > 100 µM | GI50 (EKVX): > 100 µM (inactive) | GI50 (786-0): > 100 µM (inactive) | GI50 (HOP-62): > 100 µM (inactive) | GI50 (KM12): > 100 µM (inactive) | GI50 (TK-10): > 100 µM (inactive) | GI50 (IGROV-1): > 100 µM (inactive) | GI50 (OVCAR-4): > 100 µM (inactive) | GI50 (OVCAR-5): > 100 µM (inactive) | GI50 (SF-539): > 100 µM (inactive) | GI50 (MDA-MB-231): > 100 µM (inactive) | GI50 (K562): > 79.8 µM (inactive) | GI50 (NCI-H23): > 80.9 µM (inactive) | GI50 (OVCAR-3): > 100 µM (inactive) | GI50 (MCF7): > 100 µM (inactive) | GI50 (Hs-578T): > 88.5 µM (inactive) | GI50 (MDA-N): > 100 µM (inactive) | GI50 (MOLT-4): 37.8 µM (inactive) | GI50 (SK-MEL-5): > 100 µM (inactive) | GI50 (DU-145): > 100 µM (inactive) | GI50 (M14): > 100 µM (inactive) | GI50 (HT-29): > 100 µM (inactive) | GI50 (UACC-62): > 72.1 µM (inactive) | GI50 (CCRF-CEM): 25.9 µM (inactive) | GI50 (Malme-3M): > 100 µM (inactive) | GI50 (CAKI-1): > 100 µM (inactive) | GI50 (U-251): > 80.7 µM (inactive) | GI50 (PC-3): > 100 µM (inactive) | GI50 (SR): > 52.8 µM (inactive) | GI50 (HOP-92): > 100 µM (inactive) | GI50 (SNB-19): > 100 µM (inactive) | GI50 (UO-31): > 100 µM (inactive) | GI50 (SN12C): > 100 µM (inactive) | GI50 (NCI-H522): 36.1 µM (inactive) | GI50 (UACC-257): > 100 µM (inactive) | GI50 (ACHN): > 100 µM (inactive) | GI50 (A549): 37.9 µM (inactive) | GI50 (NCI-H226): > 93.5 µM (inactive) | GI50 (SF-268): > 100 µM (inactive) | GI50 (HCT-116): > 100 µM (inactive) | GI50 (SK-MEL-28): > 100 µM (inactive) | GI50 (SW-620): > 100 µM (inactive) | GI50 (NCI/ADR-RES): > 100 µM (inactive) | GI50 (MDA-MB-435): > 100 µM (inactive) | GI50 (HCC 2998): > 100 µM (inactive) | GI50 (HL-60): 44.8 µM (inactive) | GI50 (NCI-H460): > 100 µM (inactive) | GI50 (COLO 205): > 100 µM (inactive) | GI50 (SF-295): > 100 µM (inactive) | GI50 (SK-OV-3): > 100 µM (inactive) | GI50 (RPMI-8226): > 55.6 µM (inactive) | GI50 (T47D): > 100 µM (inactive) | GI50 (RXF 393): > 89.1 µM (inactive) | GI50 (OVCAR-8): > 84.5 µM (inactive) | GI50 (LOX IMVI): > 100 µM (inactive)
